Measured values from publication PMC4293281 (Bioorganic & medicinal chemistry, 2014).
Converted amounts (≈) assume the structure as drawn.

Assays:
SV40 T Ag = SV40 T Ag (Simian virus 40, UniProt P03070); assay: steady state ATPase assay with SV40 T Ag; type: biochemical; conditions: for inhibition of SV40 T Ag ATPase activity at 100 μM: final concentration 100 μM, percent activity relative to T Ag without inhibitor
HEK293 cells = assay: HEK293 cell viability; type: cell-based, human; conditions: 20 h incubation, Cell Titer-Glo
SV40 = SV40 viral DNA replication assay in CV1 cells; type: cell-based, Simian Virus 40 in CV1 monkey kidney cells; conditions: monkey kidney cells, range of concentrations
[1] = compound stability in male mouse liver microsomes; type: in vitro ADME
[2] = aqueous solubility by LC-HRMS; type: physicochemical; conditions: distilled water, 30 °C, thermodynamic from solid
[3] = molecular target: human Hsp70 in the presence of a J domain containing yeast protein (Hlj1) (Homo sapiens, UniProt P0DMV8); assay: steady state ATPase assay, Hsp70 stimulated by J domain protein Hlj1; type: biochemical
human Hsp70 in the presence of a J domain containing yeast protein (Hlj1), sequence (P0DMV8 whole entry): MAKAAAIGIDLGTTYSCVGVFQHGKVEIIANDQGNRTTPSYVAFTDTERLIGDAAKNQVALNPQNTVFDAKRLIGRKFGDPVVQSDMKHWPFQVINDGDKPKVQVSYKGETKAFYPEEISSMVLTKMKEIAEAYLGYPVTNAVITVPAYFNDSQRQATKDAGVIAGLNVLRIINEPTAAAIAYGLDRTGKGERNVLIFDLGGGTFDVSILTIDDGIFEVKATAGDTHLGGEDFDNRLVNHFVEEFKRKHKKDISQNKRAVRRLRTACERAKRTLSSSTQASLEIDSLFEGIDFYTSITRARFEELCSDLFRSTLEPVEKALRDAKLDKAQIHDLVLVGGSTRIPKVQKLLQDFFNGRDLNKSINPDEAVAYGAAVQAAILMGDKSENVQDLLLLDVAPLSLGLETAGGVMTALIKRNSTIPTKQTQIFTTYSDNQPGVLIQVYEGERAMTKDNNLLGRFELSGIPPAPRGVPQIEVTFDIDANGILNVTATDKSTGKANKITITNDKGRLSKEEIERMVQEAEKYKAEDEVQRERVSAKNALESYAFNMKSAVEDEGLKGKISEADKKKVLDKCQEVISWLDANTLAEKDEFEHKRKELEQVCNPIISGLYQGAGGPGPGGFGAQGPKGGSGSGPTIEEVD

[4] = molecular target: human Hsp70 in the presence of a human J domain-containing protein (Hdj2) (Homo sapiens, UniProt P0DMV8); assay: steady state ATPase assay, Hsp70 stimulated by J domain protein Hdj2; type: biochemical; conditions: 100 μM versus DMSO control, 60-min time course
human Hsp70 in the presence of a human J domain-containing protein (Hdj2), sequence (P0DMV8 whole entry): as above

human Hsp70 = human Hsp70 (Homo sapiens, UniProt P0DMV8); assay: steady state ATPase assay with human Hsp70; type: biochemical
human Hsp70, sequence (P0DMV8 whole entry): as above

SV40 T Ag, sequence (P03070 whole entry): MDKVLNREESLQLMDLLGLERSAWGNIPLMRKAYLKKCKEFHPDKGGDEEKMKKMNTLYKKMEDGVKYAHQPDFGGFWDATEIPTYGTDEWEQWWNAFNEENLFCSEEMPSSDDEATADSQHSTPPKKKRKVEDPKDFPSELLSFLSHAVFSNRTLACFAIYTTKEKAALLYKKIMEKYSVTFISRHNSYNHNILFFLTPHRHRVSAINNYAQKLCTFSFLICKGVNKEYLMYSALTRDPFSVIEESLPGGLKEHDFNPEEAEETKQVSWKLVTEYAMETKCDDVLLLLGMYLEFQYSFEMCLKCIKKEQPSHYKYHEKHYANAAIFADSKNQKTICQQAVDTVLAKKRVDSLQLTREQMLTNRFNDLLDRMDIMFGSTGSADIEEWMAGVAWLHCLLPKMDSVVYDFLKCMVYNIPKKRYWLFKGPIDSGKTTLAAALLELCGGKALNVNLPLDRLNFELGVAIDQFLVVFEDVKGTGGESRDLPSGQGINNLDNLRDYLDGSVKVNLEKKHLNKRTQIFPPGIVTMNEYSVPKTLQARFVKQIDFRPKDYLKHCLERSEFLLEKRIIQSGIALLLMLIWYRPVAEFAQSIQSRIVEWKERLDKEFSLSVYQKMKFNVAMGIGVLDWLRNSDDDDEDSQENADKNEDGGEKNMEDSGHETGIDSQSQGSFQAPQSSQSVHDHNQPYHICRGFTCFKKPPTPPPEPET

Row | SMILES | IC50 (SV40 T Ag) [µM] | inhibition of SV40 replication (viral DNA by qPCR) (SV40) | solubility at 24 h [2] [µg/mL] | inhibition of SV40 T Ag ATPase activity at 100 μM (SV40 T Ag) | also measured
1 | CC1=C(C(=O)OCc2ccccc2)C(c2ccc(-c3ccccc3C)cc2)NC(=O)N1CCCCCc1nnn[nH]1 (stereo not drawn) [LR340-006, Benzyl 1-(5-(1H-tetrazol-5-yl)pentyl)-6-methyl-4-(2′-methyl-[1,1′-biphenyl]-4-yl)-2-oxo-1,2,3,4-tetrahydropyrimidine-5-carboxylate] | ~50 |  |  |  | inhibition of SV40 T Ag ATPase activity, titration (SV40 T Ag; titration at 10, 30 and 100 μM): most potent
2 | CN[C@@H]1C[C@H]2O[C@@](C)([C@@H]1OC)n1c3ccccc3c3c4c(c5c6ccccc6n2c5c31)C(=O)NC4 [Staurosporine] |  |  |  |  | LD50 (HEK293 cells): < 3 µM
3 | CC1=C(C(=O)OCc2ccccc2)C(c2ccc(-c3ccccc3C)cc2)NC(=O)N1Cc1ccc(-c2nnn[nH]2)cc1 (stereo not drawn) [SMAL, Benzyl 1-(4-(1H-tetrazol-5-yl)benzyl)-6-methyl-4-(2′-methyl-[1,1′-biphenyl]-4-yl)-2-oxo-1,2,3,4-tetrahydropyrimidine-5-carboxylate] | ~5 | inhibited viral replication | 62.4 ± 3.1 (≈ 109 µM) |  | compound remaining after 60 min incubation ([1]; male mouse liver microsomes, NADPH, 1 h): ~ 68%; stability in liver microsomes ([1]; murine liver microsomes): quite stable; IC50 [3]: > 30 µM; inhibition of Hdj2 activation of Hsp70 ATPase [4]: stronger than MAL2-11B tetrazole; IC50 (human Hsp70): ~24 µM; inhibition of endogenous Hsp70 ATPase activity at 30 μM (human Hsp70; final concentration 30 μM versus DMSO control): inhibited the endogenous activity of Hsp70
4 | CC1=C(C(=O)OCc2ccccc2)C(c2ccc(-c3ccccc3)cc2)NC(=O)N1CCCCCC(=O)NS(C)(=O)=O (stereo not drawn) [ML282-66, Benzyl 4-([1,1′-biphenyl]-4-yl)-6-methyl-1-(6-(methylsulfonamido)-6-oxohexyl)-2-oxo-1,2,3,4-tetrahydropyrimidine-5-carboxylate] |  |  |  | inhibited T Ag ATPase activity | inhibition of SV40 T Ag ATPase activity at 30 μM (SV40 T Ag; titration, 30 μM): reduced compared to ML282-56
5 | CC1=C(C(=O)OCc2ccccc2)C(c2ccc(-c3ccccc3)cc2)NC(=O)N1Cc1ccc(-c2nnn[nH]2)cc1 (stereo not drawn) [ML282-56, Benzyl 1-(4-(1H-tetrazol-5-yl)benzyl)-4-([1,1′-biphenyl]-4-yl)-6-methyl-2-oxo-1,2,3,4-tetrahydropyrimidine-5-carboxylate] | ~50 | inhibited viral replication | 14.4 ± 0.5 (≈ 25.9 µM) | inhibited T Ag ATPase activity | 
